Earlier results on 3 compounds are cited in article PMC8472685, “Nanocrystalline Suspensions of Irbesartan Enhance Oral Bioavailability by Improving Drug Solubility and Leading Endocytosis Uptake into the Intestine” (Pharmaceutics, 2021).

The conditions of series [1]: for Aqueous solubility of crystalline form: forms A and B.
Details of series [2]: method as in PMID 9438775.
For the next series, the system named is patients. Also on record: method as in PMID 9438776. The settings on record: 300 mg dose.

Regarding `CCCCC1=NC2(CCCC2)C(=O)N1Cc1ccc(-c2ccccc2-c2nnn[nH]2)cc1` [form A, irbesartan], the “Aqueous solubility of crystalline form” value in series [1] is 11 µg/mL.

For `CCCCC1=NC2(CCCC2)C(=O)N1Cc1ccc(-c2ccccc2-c2nnn[nH]2)cc1` [form B, irbesartan], the “Aqueous solubility of crystalline form” value in series [1] was 0.6 µg/mL.

Regarding `CCCCC1=NC2(CCCC2)C(=O)N1Cc1ccc(-c2ccccc2-c2nnn[nH]2)cc1` [irbesartan], the “Time of Cmax after oral administration” value in series [2] was 1.5 to 2 h. In series [2] (in patients), the “Oral bioavailability (BA)” value is listed as 60–80%. Moreover, in series [1] (low aqueous solubility and high permeability), the BCS class result is listed as “BCS class II”. Further, in the series with patients, the “Decrease in BP from baseline” value is on record as 10 mmHg and the “Higher BP in treated compared to nontreated patients (so in the source)” value is reported as “approximately 70%”.
